Patent US8440830B2, “Tetrahydro-fused pyridines as histone deacetylase inhibitors” (4SC AG, priority 2007, dated 2013)
Like-named read-outs stand apart in the source and are kept apart here.

Key:
[1] = system: histone H3 hyperacetylation in HeLa cervical carcinoma cells; assay: Cellular histone H3 hyperacetylation assay; format: cell-based; settings: Homo sapiens, 24 h treatment
Text: To assess the cellular efficacy of a histone deacetylase inhibitor in vitro, an assay is set up in black clear-bottom 96-well plates and optimized for use on the Cellomics “ArrayScan II” platform for a quantitative calculation of histone acetylation. The protocol uses a polyclonal rabbit antibody, specifically binding to acetylated lysine 1-20 (including K 9 and K14) of human histone H3 on fixed cells with an Alexa Fluor 488 labeled goat anti rabbit-IgG used for counterstaining 5×10^3 HeLa cervical carcinoma cells/well (ATCC CCL-2) in 200 μl Dulbecco's modified Eagle's medium (DMEM) containing 10% fetal calf serum are seeded at day 1 in Packard view plates and incubated for 24 h under standard cell culture conditions. On day 2, 1 μl test compound (200× final concentration) is added and incubation continued for further 24 h. On day 3, the culture medium is discarded and attached cells fixed for 15 min at room temperature by addition of 100 μl fixation buffer (3.7% v:v formaldehyde in phosphate buffered saline/PBS). After discarding the fixation buffer and one wash with blocking solution (1% BSA, 0.3% Tween 20 in PBS), cells are permeabilized at room temperature by addition of 100 μl /well permeabilization buffer (30.8 mM NaCl, 0.54 mM Na2HPO4, 0.31 mM KH2PO4, 0.1% v:v Triton X-100) for 15 min at room temperature. After discarding the permeabilization buffer and washing twice with 100 μl/well blocking solution at room temperature, the 1st antibody (anti-K1-20 histone H3 antibody, Calbiochem No. 382158) in blocking solution (50 μl/well) is added. After incubation for 1 h at room temperature, the wells are washed twice at room temperature with 100 μl/well blocking solution before addition of the 2nd antibody (goat-anti-rabbit Alexa Fluor 488; MoBiTec No. A -11008) in blocking solution (50 μl well). After further incubation for 1 h at room temperature, wells are washed twice with 100 μl/well blocking solution at room temperature. Finally, 100 μl/well PBS are added and image analysis performed on the Cellomics “ArrayScan II” platform. For EC50 determination, the percentage of positive cells showing nuclear fluorescence is determined and EC50 calculation done from concentration-effect curves by means of non-linear regression. For calibration, a positive (reference HDAC inhibitors like SAHA or NVP LBH-589) and a negative control were included.

A549 NSCLC cells = assay: Cellular cytotoxicity assay (Alamar Blue), A549; format: cell-based; settings: Homo sapiens, 72 h, upper end given as ≧100, read-out: IC50 (μM), cytotoxicity towards A549 NSCLC cells
Method in brief: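 Cells were dosed 24 h after seeding with semi-log compound dilutions in quadruplicate, then incubated 72 h at 37 °C, 5% CO2. Viability read by Resazurin reduction (4 h, fluorescence 544/590 nm) relative to untreated 0.5% DMSO controls; IC50 by non-linear regression.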

[2] = read-out: EC50, induction of histone H3 hyperacetylation
[3] = read-out: −lg EC50, induction of histone H3 hyperacetylation

| EC50 [1, 2] [nM] | EC50 [1, 3] [nM] | SMILES | IC50 (A549 NSCLC cells) [µM] |
| --- | --- | --- | --- |
| 150 to 15000 | 251 to 15800 | COc1ccc(OC(=O)N2CCc3nc(C(=O)Nc4ccccc4N)sc3C2)cc1OC [Example 186, 3,4-dimethoxyphenyl 2-[(2-aminophenyl)carbamoyl]-6,7-dihydro[1,3]thiazolo[5,4-c]pyridine-5(4H)-carboxylate] | ≥ 0.2 |
| 150 to 15000 | 251 to 15800 | CC(=O)N1CCc2nc(C(=O)Nc3ccccc3N)sc2C1 [Example 92, 5-acetyl-N-(2-aminophenyl)-4,5,6,7-tetrahydro[1,3]thiazolo[5,4-c]pyridine-2-carboxamide] | ≥ 0.2 |
| 150 to 15000 | 251 to 15800 | COc1ccc(OCC(=O)N2CCc3nc(C(=O)Nc4ccccc4N)sc3C2)cc1 [Example 174, N-(2-aminophenyl)-5-[(4-methoxyphenoxy)acetyl]-4,5,6,7-tetrahydro[1,3]-thiazolo[5,4-c]pyridine-2-carboxamide] | ≥ 0.2 |
| 150 to 15000 | 251 to 15800 | CS(=O)(=O)N1CCc2nc(C(=O)Nc3ccccc3N)sc2C1 [Example 154, N-(2-aminophenyl)-5-(methylsulfonyl)-4,5,6,7-tetrahydro[1,3]thiazolo[5,4-c]pyridine-2-carboxamide] | ≥ 0.2 |
| 150 to 15000 | 251 to 15800 | CN1CCN(c2ccc(NC(=O)N3CCc4nc(C(=O)Nc5ccccc5N)sc4C3)cn2)CC1 [Example 37, N^2-(2-aminophenyl)-N^5-[6-(4-methylpiperazin-1-yl)pyridin-3-yl]-6,7-dihydro[1,3]thiazolo[5,4-c]pyridine-2,5(4H)-dicarboxamide] | ≥ 0.2 |
| 150 to 15000 | 251 to 15800 | N#CN=C(Nc1ccccc1)N1CCc2nc(C(=O)Nc3ccccc3N)sc2C1 [Example 116, N-(2-aminophenyl)-5-[anilino(cyanoimino)methyl]-4,5,6,7-tetrahydro[1,3]thiazolo[5,4-c]pyridine-2-carboxamide] | ≥ 0.2 |
| 150 to 15000 | 251 to 15800 | COCCNC(=O)N1CCc2nc(C(=O)Nc3ccccc3N)sc2C1 [Example 16, N^2-(2-aminophenyl)-N^5-(2-methoxyethyl)-6,7-dihydro[1,3]thiazolo[5,4-c]-pyridine-2,5(4H)-dicarboxamide] | ≥ 0.2 |
| 150 to 15000 | 251 to 15800 | COc1cccc(S(=O)(=O)N2CCc3nc(C(=O)Nc4ccccc4N)sc3C2)c1 [Example 160, N-(2-aminophenyl)-5-[(3-methoxyphenyl)sulfonyl]-4,5,6,7-tetrahydro[1,3]thiazolo[5,4-c]pyridine-2-carboxamide] | ≥ 0.2 |
| 150 to 15000 | 251 to 15800 | COc1ccc(NC(=O)N2CCc3nc(C(=O)Nc4ccccc4N)sc3C2)cc1OC [Example 19, N^2-(2-aminophenyl)-N^5-(3,4-dimethoxyphenyl)-6,7-dihydro[1,3]thiazolo[5,4-c]pyridine-2,5(4H)-dicarboxamide] | ≥ 0.2 |
| 150 to 15000 | 251 to 15800 | Nc1ccccc1NC(=O)c1nc2c(s1)CN(C(=O)NCc1cccnc1)CC2 [Example 14, N^2-(2-aminophenyl)-N^5-(pyridin-3-ylmethyl)-6,7-dihydro[1,3]thiazolo[5,4-c]pyridine-2,5(4H)-dicarboxamide] | ≥ 0.2 |
| 150 to 15000 | 251 to 15800 | Nc1ccccc1NC(=O)c1nc2c(s1)CN(C(=O)COc1ccc(-c3ccccc3)cc1)CC2 [Example 176, N-(2-aminophenyl)-5-[(biphenyl-4-yloxy)acetyl]-4,5,6,7-tetrahydro[1,3]thiazolo[5,4-c]pyridine-2-carboxamide] | ≥ 0.2 |
|  |  | COc1ccc(NC(=O)C(=O)N2CCc3nc(C(=O)Nc4ccccc4N)sc3C2)cn1 [Example 70, N-(2-aminophenyl)-5-{[(6-methoxypyridin-3-yl)amino](oxo)acetyl}-4,5,6,7-tetrahydro[1,3]thiazolo[5,4-c]pyridine-2-carboxamide] | ≥ 0.2 |
|  |  | Nc1ccccc1NC(=O)c1nc2c(s1)CN(S(=O)(=O)c1cccc(OC(F)F)c1)CC2 [Example 165, N-(2-aminophenyl)-5-{[3-(difluoromethoxy)phenyl]sulfonyl}-4,5,6,7-tetrahydro[1,3]thiazolo[5,4-c]pyridine-2-carboxamide] | ≥ 0.2 |
|  |  | CN(C)c1ccc(NC(=O)C(=O)N2CCc3nc(C(=O)Nc4ccccc4N)sc3C2)cc1 [Example 64, N-(2-aminophenyl)-5-[{[4-(dimethylamino)phenyl]amino}(oxo)acetyl]-4,5,6,7-tetrahydro[1,3]thiazolo[5,4-c]pyridine-2-carboxamide] | ≥ 0.2 |
|  |  | COC(=O)c1ccc(C(=O)N2CCc3nc(C(=O)Nc4ccccc4N)sc3C2)cc1 [Example 90, Methyl 4-({2-[(2-aminophenyl)carbamoyl]-6,7-dihydro[1,3]thiazolo[5,4-c]pyridin-5(4H)-yl}carbonyl)benzoate] | ≥ 0.2 |
|  |  | Nc1ccccc1NC(=O)c1nc2c(s1)CN(C(=O)NC1CCC(c3ccncc3)CC1)CC2 (stereo not drawn) [Example 44, N^2-(2-aminophenyl)-N^5-(4-pyridin-4-ylcyclohexyl)-6,7-dihydro[1,3]thiazolo[5,4-c]pyridine-2,5(4H)-dicarboxamide] | ≥ 0.2 |
|  |  | COc1ccc(N)c(NC(=O)c2nc3c(s2)CN(C(=O)Nc2ccc(F)cc2)CC3)c1 [Example 51, N^2-(2-amino-5-methoxyphenyl)-N^5-(4-fluorophenyl)-6,7-dihydro[1,3]thiazolo[5,4-c]pyridine-2,5(4H)-dicarboxamide] | ≥ 0.2 |
|  |  | Nc1ccccc1NC(=O)c1nc2c(s1)CN(C(=O)C(=O)Nc1ccc(OC(F)(F)F)cc1)CC2 [Example 72, N-(2-aminophenyl)-5-(oxo{[4-(trifluoromethoxy)phenyl]amino}acetyl)-4,5,6,7-tetrahydro[1,3]thiazolo[5,4-c]pyridine-2-carboxamide] | ≥ 0.2 |
|  |  | Nc1ccccc1NC(=O)c1nc2c(s1)CN(S(=O)(=O)c1ccc(OC(F)(F)F)cc1)CC2 [Example 168, N-(2-aminophenyl)-5-{[4-(trifluoromethoxy)phenyl]sulfonyl}-4,5,6,7-tetrahydro[1,3]thiazolo[5,4-c]pyridine-2-carboxamide] | ≥ 0.2 |
|  |  | Nc1ccccc1NC(=O)c1nc2c(s1)CN(C(=O)C(=O)NCc1ccccc1)CC2 [Example 85, N-(2-aminophenyl)-5-[(benzylamino)(oxo)acetyl]-4,5,6,7-tetrahydro[1,3]thiazolo[5,4-c]pyridine-2-carboxamide] | ≥ 0.2 |
|  |  | COc1ccc(NC(=O)N2CCc3nc(C(=O)Nc4cc(C(C)C)ccc4N)sc3C2)cc1OC [Example 48, N^2-(2-amino-5-isopropylphenyl)-N^5-(3,4-dimethoxyphenyl)-6,7-dihydro[1,3]thiazolo[5,4-c]pyridine-2,5(4H)-dicarboxamide] | ≥ 0.2 |
|  |  | COc1ccc(N=C(C)N2CCc3nc(C(=O)Nc4ccccc4N)sc3C2)cc1OC [Example 127, N-(2-aminophenyl)-5-[N-(3,4-dimethoxyphenyl)ethanimidoyl]-4,5,6,7 tetrahydro[1,3]thiazolo[5,4-c]pyridine-2-carboxamide] | ≥ 0.2 |
|  |  | COc1ccc(C(=O)N2CCc3nc(C(=O)Nc4ccccc4N)sc3C2)cc1 [Example 93, N-(2-aminophenyl)-5-(4-methoxybenzoyl)-4,5,6,7-tetrahydro[1,3]thiazolo[5,4-c]pyridine-2-carboxamide] | ≥ 0.2 |
|  |  | Nc1ccccc1NC(=O)c1nc2c(s1)CN(C(=S)NC1CCNCC1)CC2 [Example 100, N-(2-aminophenyl)-5-[(piperidin-4-ylamino)carbonothioyl]-4,5,6,7-tetrahydro[1,3]thiazolo[5,4-c]pyridine-2-carboxamide] | ≥ 0.2 |
|  |  | COc1ccc(N)c(NC(=O)c2nc3c(s2)CN(C(=C[N+](=O)[O-])Nc2ccc(F)cc2)CC3)c1 [Example 149, N-(2-amino-5-methoxyphenyl)-5-{1-[(4-fluorophenyl)amino]-2-nitrovinyl}-4,5,6,7-tetrahydro[1,3]thiazolo[5,4-c]pyridine-2-carboxamide] | ≥ 0.2 |
|  |  | COc1ccc(N)c(NC(=O)c2nc3c(s2)CN(C(=O)Nc2ccc(N(C)C)cc2)CC3)c1 [Example 47, N^2-(2-amino-5-methoxyphenyl)-N^5-[4-(dimethylamino)phenyl]-6,7-dihydro-[1,3]thiazolo[5,4-c]pyridine-2,5(4H)-dicarboxamide] | ≥ 0.2 |
